Experimental data taken from patent US9382295B2, “Cyclic depsipeptide compounds and their uses” (Cypralis Limited, priority 2012, dated 2016).
pKi: −log10 of the molar value. Values after ≈ are worked out from the molar mass of the structure shown. Read-outs that look alike come from different tables or passages of the source. Numbered stars: 1 amine (or outer) side, 2 acyl side, 3 side chain; on linkers, the order of the positions; unused ones are H or OH. Square brackets hold non-standard residues; d marks the D form. Peptide text beside a SMILES is read from it. X13 = C[C@H](CCN(Cc1ccccn1)Cc1ccccn1)[C@@H](O)[C@H](C(=O)[*:2])N(C)[*:1]; X28 = C[C@H](CCN1CCC(c2ccccc2)CC1)[C@@H](O)[C@H](C(=O)[*:2])N(C)[*:1]; X22 = C[C@H](Cc1nc2ccccc2[nH]1)[C@@H](O)[C@H](C(=O)[*:2])N(C)[*:1]; X29 = C[C@H](CCN(C)Cc1ccccn1)[C@@H](O)[C@H](C(=O)[*:2])N(C)[*:1]; X9 = C[C@H](CC(=O)NCc1ccccc1)[C@@H](O)[C@H](C(=O)[*:2])N(C)[*:1]; X27 = C[C@H](CCN(C)c1ccccn1)[C@@H](O)[C@H](C(=O)[*:2])N(C)[*:1]; X6 = C[C@H](CCN1CCOC[C@H]1C)[C@@H](O)[C@H](C(=O)[*:2])N(C)[*:1]; X18 = C[C@H](CCNCc1ccccc1)[C@@H](O)[C@H](C(=O)[*:2])N(C)[*:1]; X25 = CC(C)NCC[C@@H](C)[C@@H](O)[C@H](C(=O)[*:2])N(C)[*:1]; d(aThr) = C[C@@H](O)[C@@H](N)C(=O)O; NMeL = CN[C@@H](CC(C)C)C(=O)O; dNMeL = CN[C@H](CC(C)C)C(=O)O; dNMeV = CN[C@@H](C(=O)O)C(C)C; Hiv = CC(C)[C@H](O)C(=O)O; Sar = CNCC(=O)O

Experiments:
[1] = target: T1, cyclophilin A (Cyp A) (Homo sapiens, UniProt P62937); assay: Protease-free PPIase assay, cyclophilin A; type: biochemical
T1 construct: purchased Sigma C3805
T1 sequence (P62937 whole entry): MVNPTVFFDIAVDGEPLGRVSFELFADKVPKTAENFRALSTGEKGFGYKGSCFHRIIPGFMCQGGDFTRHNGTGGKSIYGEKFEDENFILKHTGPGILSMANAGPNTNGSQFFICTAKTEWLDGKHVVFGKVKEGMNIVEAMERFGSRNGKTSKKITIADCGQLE
Procedure, shortened: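 Protease-free cis-trans isomerisation: 2 nM recombinant human cyclophilin A with 60 μM succinimide-peptide substrate in 35 mM HEPES pH 7.8 plus DTT, at 10.0 °C, max 0.5% DMSO. Absorbance at 330 nm was fitted to first-order kinetics, background subtracted, and catalytic rates versus inhibitor concentration gave Ki.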

[2] = target: cyclophilin D (Cyp D) (Homo sapiens, UniProt P30405); assay: Protease-free PPIase assay, cyclophilin D; type: biochemical
Sequence of cyclophilin D (Cyp D) (P30405 30-207): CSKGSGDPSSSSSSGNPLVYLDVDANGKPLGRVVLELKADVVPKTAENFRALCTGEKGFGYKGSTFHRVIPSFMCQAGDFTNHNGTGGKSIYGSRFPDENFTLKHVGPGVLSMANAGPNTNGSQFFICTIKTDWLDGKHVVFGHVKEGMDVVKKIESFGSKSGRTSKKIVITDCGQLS
Procedure, shortened: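 Cis-trans isomerization of a succinimide-peptide substrate (60 µM final) by 2 nM enzyme was followed at 330 nm in 35 mM HEPES pH 7.8 with 50 µM DTT, stirred at 10.0 °C, DMSO ≤0.5%. First-order rate constants minus background were fitted against inhibitor concentration to give Ki.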

[3] = Water solubility assay (pH 7.8 buffer); type: physicochemical
Procedure, shortened: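 DMSO stocks were diluted into 35 mM HEPES pH 7.8 to final 0–100 μM with 1% DMSO, in triplicate. Plates were shaken 18 h at 25 °C, then precipitation was detected as increased absorbance at 650 nm. Values give the concentration (μM) at which the compound remains in solution.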

[4] = protease-free PPIase assay, class symbols, read-out: CypA Ki
[5] = protease-free PPIase assay, class symbols, read-out: CypD Ki
[6] = 35 mM HEPES buffer, 35 mM HEPES pH 7.8, 1% DMSO, 25° C., 18 h, concentration at which compound remains in solution, read-out: Solubility

| SMILES | pKi [1] | pKi [2] | solubility at 18 h ([3]; pH 7.8) | pKi [1, 4] | pKi [2, 5] | solubility at 18 h [3, 6] |
| --- | --- | --- | --- | --- | --- | --- |
| CC(C)C[C@@H]1C(=O)N[C@H](CC(C)C)C(=O)N(C)[C@H](C(C)C)C(=O)N(C)[C@H]([C@H](O)[C@H](C)CCN(C)c2ccccn2)C(=O)N[C@H]([C@@H](C)O)C(=O)N(C)CC(=O)N(C)[C@@H](CC(C)C)C(=O)N[C@H](CC(C)C)C(=O)N(C)[C@H](CC(C)C)C(=O)N[C@H](C)C(=O)O[C@@H](C(C)C)C(=O)N1C [Example 28, cyclo-[(3R,4R,5S)-4-(hydroxy)-3-methyl-5-(methylamino)-1-N-(methyl-pyridin-2-yl-amine)-hexanoic acid-Thr-Sar-MeLeu-Leu-MeLeu-Ala-D-Hiv-MeLeu-Leu-MeVal]] (cyclo([Hiv][dNMeL][dL][dNMeV][X27][d(aThr)][Sar][NMeL][dL][dNMeL][dA])) | 7.60 to 9.00 | 7.60 to 9.00 | 25 to 50 µM (≈ 33.2 to 66.4 µg/mL) |  |  |  |
| CC(C)C[C@@H]1C(=O)N[C@H](CC(C)C)C(=O)N(C)[C@H](C(C)C)C(=O)N(C)[C@H]([C@H](O)[C@H](C)CCN2CCOC[C@H]2C)C(=O)N[C@H]([C@@H](C)O)C(=O)N(C)CC(=O)N(C)[C@@H](CC(C)C)C(=O)N[C@H](CC(C)C)C(=O)N(C)[C@H](CC(C)C)C(=O)N[C@H](C)C(=O)O[C@@H](C(C)C)C(=O)N1C [Example 29, cyclo-[(3R,4R,5S)-4-(hydroxy)-3-methyl-5-(methylamino)-1-N—((R)-3-Methyl-morpholine)-hexanoic acid-Thr-Sar-MeLeu-Leu-MeLeu-Ala-D-Hiv-MeLeu-Leu-MeVal]] (cyclo([Hiv][dNMeL][dL][dNMeV][X6][d(aThr)][Sar][NMeL][dL][dNMeL][dA])) | 7.00 to 7.60 | 7.00 to 7.60 | > 100 µM |  |  |  |
| CC(C)C[C@@H]1C(=O)N[C@H](CC(C)C)C(=O)N(C)[C@H](C(C)C)C(=O)N(C)[C@H]([C@H](O)[C@H](C)CCN(Cc2ccccn2)Cc2ccccn2)C(=O)N[C@H]([C@@H](C)O)C(=O)N(C)CC(=O)N(C)[C@@H](CC(C)C)C(=O)N[C@H](CC(C)C)C(=O)N(C)[C@H](CC(C)C)C(=O)N[C@H](C)C(=O)O[C@@H](C(C)C)C(=O)N1C [Example 30, cyclo-[(3R,4R,5S)-4-(hydroxy)-3-methyl-5-(methylamino)-1-N-(bis-pyridin-2-ylmethyl-amine)-hexanoic acid-Thr-Sar-MeLeu-Leu-MeLeu-Ala-D-Hiv-MeLeu-Leu-MeVal]] (cyclo([Hiv][dNMeL][dL][dNMeV][X13][d(aThr)][Sar][NMeL][dL][dNMeL][dA])) |  |  |  | 7.00 to 7.60 | 7.60 to 9.00 | 10 to 25 µM (≈ 14.2 to 35.5 µg/mL) |
| CC(C)C[C@@H]1C(=O)N[C@H](CC(C)C)C(=O)N(C)[C@H](C(C)C)C(=O)N(C)[C@H]([C@H](O)[C@H](C)CCN(C)Cc2ccccn2)C(=O)N[C@H]([C@@H](C)O)C(=O)N(C)CC(=O)N(C)[C@@H](CC(C)C)C(=O)N[C@H](CC(C)C)C(=O)N(C)[C@H](CC(C)C)C(=O)N[C@H](C)C(=O)O[C@@H](C(C)C)C(=O)N1C [Example 31, cyclo-[(3R,4R,5S)-4-(hydroxy)-3-methyl-5-(methylamino)-1-N-(methyl-pyridin-2-ylmethyl-amino)-hexanoic acid-Thr-Sar-MeLeu-Leu-MeLeu-Ala-D-Hiv-MeLeu-Leu-MeVal]] (cyclo([Hiv][dNMeL][dL][dNMeV][X29][d(aThr)][Sar][NMeL][dL][dNMeL][dA])) |  |  |  | 7.00 to 7.60 | 7.60 to 9.00 | 50 to 75 µM (≈ 67.1 to 101 µg/mL) |
| CC(C)C[C@@H]1C(=O)N[C@H](CC(C)C)C(=O)N(C)[C@H](C(C)C)C(=O)N(C)[C@H]([C@H](O)[C@H](C)Cc2nc3ccccc3[nH]2)C(=O)N[C@H]([C@@H](C)O)C(=O)N(C)CC(=O)N(C)[C@@H](CC(C)C)C(=O)N[C@H](CC(C)C)C(=O)N(C)[C@H](CC(C)C)C(=O)N[C@H](C)C(=O)O[C@@H](C(C)C)C(=O)N1C [Example 33, cyclo-[(2R,3R,4S)-1-(1H-benzoimidazol-2-yl)-2-methyl-4-methylamino-3-hydroxy-pentanoic acid-Thr-Sar-MeLeu-Leu-MeLeu-Ala-D-Hiv-MeLeu-Leu-MeVal]] (cyclo([Hiv][dNMeL][dL][dNMeV][X22][d(aThr)][Sar][NMeL][dL][dNMeL][dA])) | 7.60 to 9.00 | 7.60 to 9.00 | 25 to 50 µM (≈ 33.1 to 66.2 µg/mL) |  |  |  |

More lines, now with the values ahead:

| pKi [1] | pKi [2] | solubility at 18 h ([3]; pH 7.8) | pKi [1, 4] | pKi [2, 5] | solubility at 18 h [3, 6] | SMILES |
| --- | --- | --- | --- | --- | --- | --- |
|  |  |  | 7.60 to 9.00 | 7.60 to 9.00 | 10 to 25 µM (≈ 13.8 to 34.5 µg/mL) | CC(C)C[C@@H]1C(=O)N[C@H](CC(C)C)C(=O)N(C)[C@H](C(C)C)C(=O)N(C)[C@H]([C@H](O)[C@H](C)CCN2CCC(c3ccccc3)CC2)C(=O)N[C@H]([C@@H](C)O)C(=O)N(C)CC(=O)N(C)[C@@H](CC(C)C)C(=O)N[C@H](CC(C)C)C(=O)N(C)[C@H](CC(C)C)C(=O)N[C@H](C)C(=O)O[C@@H](C(C)C)C(=O)N1C [Example 34, cyclo-[(3R,4R,5S)-4-(hydroxy)-3-methyl-5-(methylamino)-1-(4-phenyl-1-piperidyl)-hexanoic acid-Thr-Sar-MeLeu-Leu-MeLeu-Ala-D-Hiv-MeLeu-Leu-MeVal]] (cyclo([Hiv][dNMeL][dL][dNMeV][X28][d(aThr)][Sar][NMeL][dL][dNMeL][dA])) |
| 7.00 to 7.60 | 7.60 to 9.00 | 25 to 50 µM (≈ 33.2 to 66.3 µg/mL) |  |  |  | CC(C)C[C@@H]1C(=O)N[C@H](CC(C)C)C(=O)N(C)[C@H](C(C)C)C(=O)N(C)[C@H]([C@H](O)[C@H](C)CCNCc2ccccc2)C(=O)N[C@H]([C@@H](C)O)C(=O)N(C)CC(=O)N(C)[C@@H](CC(C)C)C(=O)N[C@H](CC(C)C)C(=O)N(C)[C@H](CC(C)C)C(=O)N[C@H](C)C(=O)O[C@@H](C(C)C)C(=O)N1C [Example 35, cyclo-[(3R,4R,5S)-1-benzylamino-3-methyl-5-methylamino-4-hydroxy-hexanoic acid-Thr-Sar-MeLeu-Leu-MeLeu-Ala-D-Hiv-MeLeu-Leu-MeVal]] (cyclo([Hiv][dNMeL][dL][dNMeV][X18][d(aThr)][Sar][NMeL][dL][dNMeL][dA])) |
| 7.60 to 9.00 | 7.60 to 9.00 | 25 to 50 µM (≈ 33.5 to 67 µg/mL) |  |  |  | CC(C)C[C@@H]1C(=O)N[C@H](CC(C)C)C(=O)N(C)[C@H](C(C)C)C(=O)N(C)[C@H]([C@H](O)[C@H](C)CC(=O)NCc2ccccc2)C(=O)N[C@H]([C@@H](C)O)C(=O)N(C)CC(=O)N(C)[C@@H](CC(C)C)C(=O)N[C@H](CC(C)C)C(=O)N(C)[C@H](CC(C)C)C(=O)N[C@H](C)C(=O)O[C@@H](C(C)C)C(=O)N1C [Example 36, cyclo-[(3R,4R,5S)-1-benzylcarbamoyl-3-methyl-5-methylamino-4-hydroxy-pentanoic acid-Thr-Sar-MeLeu-Leu-MeLeu-Ala-D-Hiv-MeLeu-Leu-MeVal]] (cyclo([Hiv][dNMeL][dL][dNMeV][X9][d(aThr)][Sar][NMeL][dL][dNMeL][dA])) |
| 7.00 to 7.60 | 7.60 to 9.00 | > 100 µM |  |  |  | CC(C)C[C@@H]1C(=O)N[C@H](CC(C)C)C(=O)N(C)[C@H](C(C)C)C(=O)N(C)[C@H]([C@H](O)[C@H](C)CCNC(C)C)C(=O)N[C@H]([C@@H](C)O)C(=O)N(C)CC(=O)N(C)[C@@H](CC(C)C)C(=O)N[C@H](CC(C)C)C(=O)N(C)[C@H](CC(C)C)C(=O)N[C@H](C)C(=O)O[C@@H](C(C)C)C(=O)N1C [Example 37, cyclo-[(3R,4R,5S)-4-hydroxy-1-isopropylamino-3-methyl-5-methylamino-hexanoic acid-Thr-Sar-MeLeu-Leu-MeLeu-Ala-D-Hiv-MeLeu-Leu-MeVal]] (cyclo([Hiv][dNMeL][dL][dNMeV][X25][d(aThr)][Sar][NMeL][dL][dNMeL][dA])) |
